Data reported in US8937072B2, “Substituted cyanoaniline compounds, preparation and use thereof” (Sinochem Corporation, priority 2011, dated 2015).
Where “and” joins values, the source holds several entries; their conditions need not be identical. Equal entries are not always repeated.

Test system: cucumber downy mildew
Experiment: Protectant activity in vivo (whole plant) against cucumber downy mildew
Experimental: The method is as followed: The whole plant is used in this test. The compound is dissolved in a proper solvent to get mother solution. The proper solvent is selected from acetone, methanol, DMF and so on according to their dissolving capability to the sample. The volume rate of solvent and testing solution (v/v) is equal to or less than 5%. The mother solution is diluted with water containing 0.1% tween-80 to get the testing solution whose concentration is designed. The testing solution is sprayed to the host plant by a special plant sprayer. The plant is inoculated with fungus after 24 hours. According to the infecting characteristic of fungus, the plant is stored in a humidity chamber and then transferred into greenhouse after infection is finished. And the other plants are placed in greenhouse directly. The activity of compound is obtained by eyeballing after 7 days in common.

SMILES | protectant activity against cucumber downy mildew in vivo (dose 400 mg/L) | further results
COc1cc([N+](=O)[O-])ccc1Nc1c(F)c(C#N)c(F)c(F)c1C#N [Compound C-88] |  | protectant activity against cucumber downy mildew in vivo (dose 50 mg/L): 98%
N#Cc1c(F)c(F)c(C#N)c(Nc2ccc([N+](=O)[O-])cc2F)c1F [Compound C-79] | 100% | 
N#Cc1c(F)c(F)c(C#N)c(Nc2ccc([N+](=O)[O-])cc2)c1F [Compound C-70] | 100% | 
N#Cc1c(Cl)c(Cl)c(Nc2ccc(F)c(F)c2F)c(Cl)c1C#N [Compound A-41] | 100% | 
N#Cc1c(Cl)c(Cl)c(Nc2c(Br)cc([N+](=O)[O-])cc2Br)c(Cl)c1C#N [Compound A-45] | 100% | protectant activity against cucumber downy mildew in vivo (dose 25 mg/L): 100%; protectant activity against cucumber downy mildew in vivo (dose 50 mg/L): 100%; protectant activity against cucumber downy mildew in vivo (dose 100 mg/L): 100%
N#Cc1c(Cl)c(Cl)c(C#N)c(Nc2cc(C(F)(F)F)ccc2Cl)c1Cl [Compound C-32] | 100% | 
Cc1ccnc(Nc2c(Cl)c(Cl)c(C#N)c(C#N)c2Cl)c1 [Compound A-80] | 100% | protectant activity against cucumber downy mildew in vivo (dose 100 mg/L): 100%
N#Cc1c(Cl)c(Cl)c(Nc2ccc(Br)cn2)c(Cl)c1C#N [Compound A-79] | 100% | protectant activity against cucumber downy mildew in vivo (dose 100 mg/L): 100%
COc1cc([N+](=O)[O-])ccc1Nc1c(Cl)c(C#N)c(Cl)c(Cl)c1C#N [Compound C-35] | 100% | 
N#Cc1c(Cl)c(Cl)c(Nc2c(Cl)cncc2Cl)c(C#N)c1Cl [Compound B-139] | 100% | the protectant activity (%) against cucumber downy mildew (12.5 mg/L): 100%; the protectant activity (%) against cucumber downy mildew (25 mg/L): 98%; the protectant activity (%) against cucumber downy mildew (50 mg/L): 98%; the protectant activity (%) against cucumber downy mildew (100 mg/L): 100%; protectant activity against cucumber downy mildew in vivo (dose 12.5 mg/L): 98%; protectant activity against cucumber downy mildew in vivo (dose 50 mg/L): 98%; protectant activity against cucumber downy mildew in vivo (dose 100 mg/L): 100%
CNC(=O)c1cc(Cl)cc(C)c1Nc1c(Cl)c(C#N)c(Cl)c(Cl)c1C#N [Compound C-56] | 100% | 
Cc1ccc(Nc2c(Cl)c(Cl)c(C#N)c(C#N)c2Cl)nc1 [Compound A-81] | 100% | 
N#Cc1c(F)c(F)c(C#N)c(Nc2cc([N+](=O)[O-])ccc2Cl)c1F [Compound C-81] | 100% | 
N#Cc1c(Cl)c(Cl)c(Nc2ccc(OC(F)(F)F)cc2)c(C#N)c1Cl [Compound B-12] | 100% | 
N#Cc1c(F)c(F)c(C#N)c(Nc2c(Br)cc([N+](=O)[O-])cc2Br)c1F [Compound C-96] |  | protectant activity against cucumber downy mildew in vivo (dose 50 mg/L): 98%
N#Cc1ccc(Nc2c(Cl)c(Cl)c(C#N)c(C#N)c2Cl)cc1C(F)(F)F [Compound A-27] | 100% | 
N#Cc1c(Cl)c(Cl)c(Nc2ccc([N+](=O)[O-])cc2[N+](=O)[O-])c(C#N)c1Cl [Compound B-37] | 100% | 
N#Cc1c(F)c(F)c(Nc2c(Br)cc([N+](=O)[O-])cc2Br)c(C#N)c1F [Compound B-115] | 100% | 
N#Cc1c(Cl)c(Cl)c(Nc2ccc([N+](=O)[O-])cc2F)c(Cl)c1C#N [Compound A-14] | 100% | protectant activity against cucumber downy mildew in vivo (dose 25 mg/L): 100%; protectant activity against cucumber downy mildew in vivo (dose 50 mg/L): 100%; protectant activity against cucumber downy mildew in vivo (dose 100 mg/L): 100%
N#Cc1c(Cl)c(Cl)c(C#N)c(Nc2ccc(OC(F)(F)F)cc2)c1Cl [Compound C-13] | 100% | 

SMILES | protectant activity against cucumber downy mildew in vivo (dose 400 mg/L) | further results
COC(=O)c1ccc(Nc2c(Cl)c(Cl)c(C#N)c(C#N)c2Cl)cc1 [Compound A-11] | 100% | 
N#Cc1ccc(Nc2c(Cl)c(Cl)c(C#N)c(Cl)c2C#N)cc1 [Compound B-10] | 100% | 
N#Cc1c(F)c(F)c(Nc2c(Cl)cc([N+](=O)[O-])cc2Cl)c(C#N)c1F [Compound B-109] | 100% | protectant activity against cucumber downy mildew in vivo (dose 50 mg/L): 100%; protectant activity against cucumber downy mildew in vivo (dose 100 mg/L): 100%
N#Cc1c(Cl)c(Cl)c(C#N)c(Nc2ccc(F)c(F)c2F)c1Cl [Compound C-51] | 100% | 
Cc1cc(Cl)ccc1Nc1c(Cl)c(Cl)c(C#N)c(Cl)c1C#N [Compound B-22] | 100% | 
N#Cc1c(F)c(F)c(C#N)c(Nc2c(Cl)cc([N+](=O)[O-])cc2Cl)c1F [Compound C-93] | 100% | 
COC(=O)c1ccc(Nc2c(Cl)c(Cl)c(C#N)c(Cl)c2C#N)cc1 [Compound B-13] | 100% | 
N#Cc1cc([N+](=O)[O-])cc(Br)c1Nc1c(F)c(F)c(C#N)c(F)c1C#N [Compound B-116] | 100% | 
N#Cc1c(Cl)c(Cl)c(Nc2cc([N+](=O)[O-])ccc2Cl)c(Cl)c1C#N [Compound A-16] | 100% | 
CNC(=O)c1cc(Cl)cc(C)c1Nc1c(Cl)c(Cl)c(C#N)c(Cl)c1C#N [Compound B-62b] | 100% | 
N#Cc1c(Cl)c(Cl)c(Nc2cccc(Cl)c2Cl)c(C#N)c1Cl [Compound B-16] | 100% | 
N#Cc1ccc(Nc2c(Cl)c(Cl)c(C#N)c(Cl)c2C#N)cc1C(F)(F)F [Compound B-40] | 100% | the protectant activity (%) against cucumber downy mildew (12.5 mg/L): 30%; the protectant activity (%) against cucumber downy mildew (25 mg/L): 98%; the protectant activity (%) against cucumber downy mildew (50 mg/L): 100%; the protectant activity (%) against cucumber downy mildew (100 mg/L): 100%; protectant activity against cucumber downy mildew in vivo (dose 50 mg/L): 100%; protectant activity against cucumber downy mildew in vivo (dose 100 mg/L): 100%
Cc1cccc(Cl)c1Nc1c(Cl)c(Cl)c(C#N)c(Cl)c1C#N [Compound B-23] | 100% | 
N#Cc1c(Cl)c(Cl)c(Nc2c(Cl)cc([N+](=O)[O-])cc2Cl)c(Cl)c1C#N [Compound A-44] | 100% | protectant activity against cucumber downy mildew in vivo (dose 100 mg/L): 100%
N#Cc1c(F)c(F)c(Nc2ccc([N+](=O)[O-])cc2Cl)c(C#N)c1F [Compound B-95] | 100% | 
N#Cc1c(Cl)c(Cl)c(C#N)c(Nc2ccc(C(F)(F)F)cc2Cl)c1Cl [Compound C-30] | 100% | protectant activity against cucumber downy mildew in vivo (dose 100 mg/L): 90%
N#Cc1c(Cl)c(Cl)c(C#N)c(Nc2ccc([N+](=O)[O-])cc2Cl)c1Cl [Compound C-28] | 100% | 
N#Cc1ccc(Nc2c(Cl)c(C#N)c(Cl)c(Cl)c2C#N)cc1C(F)(F)F [Compound C-38] | 100% | protectant activity against cucumber downy mildew in vivo (dose 100 mg/L): 100% and 90%
N#Cc1ccc(Nc2c(Cl)c(C#N)c(Cl)c(Cl)c2C#N)cc1 [Compound C-12] | 100% | 
N#Cc1c(Cl)c(Cl)c(Nc2ncc(C(F)(F)F)cc2Cl)c(C#N)c1Cl [Compound B-125] | 100% | protectant activity against cucumber downy mildew in vivo (dose 50 mg/L): 98%; protectant activity against cucumber downy mildew in vivo (dose 100 mg/L): 100%
